Test results taken from US20230374034A1, “NOVEL BICYCLIC COMPOUNDS” (PRISM BIOLAB CO., LTD., priority 2020, published 2023).

The compounds below were run on NICD (Notch intracellular domain) CSL-bla reporter in HeLa cells (assay: Notch assay (CellSensor T-REx NICD CSL-bla HeLa beta-lactamase reporter; Method 1 / Method 2)). Conditions: Homo sapiens, 10 μM compound, Method 1 (10× compound prepared in assay medium, added to plated cells), read-out: inhibiton (%) at 10 μM.
Type: cell-based
Outline: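 HeLa cells carrying doxycycline-inducible NICD and a CSL-driven beta-lactamase reporter, 10^3 cells/well, were treated with compound plus doxycycline for 16-20 h at 37 °C. CCF4-AM substrate was loaded for 4 h at room temperature; background-subtracted blue (460 nm)/green (530 nm) emission ratio taken per well.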

In order of rising inhibition at 10 µM:
1. CCCC[C@H]1ON(C(=O)OCc2cccc3ccccc23)C2CN(Cc3ccccc3)C(=O)[C@H](Cc3ccc(O)cc3)N2C1=O (stereo partly drawn) [Compound I-11, (3R,6S)-naphthalen-1-ylmethyl 8-benzyl-3-butyl-6-(4-hydroxybenzyl)-4,7-dioxohexahydropyrazino[2,1-c][1,2,4]oxadiazine-1(6H)-carboxylate]  51.7%
2. CCCCCCOC(=O)N1O[C@H](CCCC)C(=O)N2C1CN(CCC(C)C)C(=O)[C@@H]2Cc1ccc(O)cc1 (stereo partly drawn) [Compound I-2, (3R,6S)-hexyl 3-butyl-6-(4-hydroxybenzyl)-8-isopentyl-4,7-dioxohexahydropyrazino[2,1-c][1,2,4]oxadiazine-1(6H)-carboxylate]  53.5%
3. CC(C)[C@H]1C(=O)N(CC2CCCCC2)CC2N(C(=O)OCc3cccc4ccccc34)O[C@H](CC(N)=O)C(=O)N21 (stereo partly drawn) [Compound I-18, (3R,6S)-naphthalen-1-ylmethyl 3-(2-amino-2-oxoethyl)-8-(cyclohexylmethyl)-6-isopropyl-4,7-dioxohexahydropyrazino[2,1-c][1,2,4]oxadiazine-1(6H)-carboxylate]  54%
4. CC(C)C[C@H]1ON(C(=O)OCc2cccc3ccccc23)C2CN(CCC(N)=O)C(=O)[C@H](CC3CCCCC3)N2C1=O (stereo partly drawn) [Compound I-13, (3R,6S)-naphthalen-1-ylmethyl 8-(3-amino-3-oxopropyl)-6-(cyclohexylmethyl)-3-isobutyl-4,7-dioxohexahydropyrazino[2,1-c][1,2,4]oxadiazine-1(6H)-carboxylate]  55.5%

Same assay, conditions: Homo sapiens, 10 μM compound, Method 2 (40 nL of 1000× compound added to plate with Echo), read-out: inhibiton (%) at 10 μM

In order of rising inhibition at 10 µM:
1. CC(C)C[C@H]1ON(CCCc2ccccc2)C2CN(C3CCNCC3)C(=O)[C@H](CC(C)C)N2C1=O (stereo partly drawn) [Compound I-147, (3R,6S)-3,6-diisobutyl-1-(3-phenylpropyl)-8-(piperidin-4-yl)tetrahydropyrazino[2,1-c][1,2,4]oxadiazine-4,7(3H,6H)-dione]  50.2%
2. CCCCCOC(=O)N1O[C@H](CC(C)C)C(=O)N2C1CN([C@@H](Cc1ccc(O)cc1)C(=O)NCCC(C)C)C(=O)[C@@H]2Cc1ccc(O)cc1 (stereo partly drawn) [Compound I-96, pentyl (3R,6S)-6-(4-hydroxybenzyl)-8-((S)-3-(4-hydroxyphenyl)-1-(isopentylamino)-1-oxopropan-2-yl)-3-isobutyl-4,7-dioxohexahydropyrazino[2,1-c][1,2,4]oxadiazine-1(6H)-carboxylate]  56.3%
3. O=C(NCCc1ccccc1)[C@H](Cc1ccccc1)N1CC2N(C(=O)OCCc3ccc(O)cc3)O[C@H](Cc3ccc(O)cc3)C(=O)N2[C@@H](Cc2ccc(O)cc2)C1=O (stereo partly drawn) [Compound I-116, 4-hydroxyphenethyl (3R,6S)-3,6-bis(4-hydroxybenzyl)-4,7-dioxo-8-((S)-1-oxo-1-(phenethylamino)-3-phenylpropan-2-yl)hexahydropyrazino[2,1-c][1,2,4]oxadiazine-1(6H)-carboxylate]  62.5%
4. CCCCCOC(=O)N1O[C@H](Cc2ccccc2)C(=O)N2C1CN([C@@H](Cc1ccc(O)cc1)C(=O)NCCc1ccccc1)C(=O)[C@@H]2Cc1ccc(O)cc1 (stereo partly drawn) [Compound I-113, pentyl (3R,6S)-3-benzyl-6-(4-hydroxybenzyl)-8-((S)-3-(4-hydroxyphenyl)-1-oxo-1-(phenethylamino)propan-2-yl)-4,7-dioxohexahydropyrazino[2,1-c][1,2,4]oxadiazine-1(6H)-carboxylate]  62.9%
5. CCCCOC(=O)N1O[C@H](CCC(N)=O)C(=O)N2C1CN(CCO)C(=O)[C@@H]2C (stereo partly drawn) [Compound I-50, (3R,6S)-butyl 3-(3-amino-3-oxopropyl)-8-(2-hydroxyethyl)-6-methyl-4,7-dioxohexahydropyrazino[2,1-c][1,2,4]oxadiazine-1(6H)-carboxylate]  64.6%
6. O=C(NCCc1ccccc1)[C@H](Cc1ccccc1)N1CC2N(C(=O)OCCc3ccc(O)cc3)O[C@H](Cc3ccc(O)cc3)C(=O)N2[C@@H](Cc2ccccc2)C1=O (stereo partly drawn) [Compound I-83, 4-hydroxyphenethyl (3R,6S)-6-benzyl-3-(4-hydroxybenzyl)-4,7-dioxo-8-((S)-1-oxo-1-(phenethylamino)-3-phenylpropan-2-yl)hexahydropyrazino [2,1-c][1,2,4]oxadiazine-1(6H)-carboxylate]  76.2%
7. CC(C)C[C@H]1ON(C(=O)OCCc2ccc(O)cc2)C2CN([C@@H](Cc3ccccc3)C(=O)NCCc3ccccc3)C(=O)[C@H](Cc3ccc(O)cc3)N2C1=O (stereo partly drawn) [Compound I-93, 4-hydroxyphenethyl (3R,6S)-6-(4-hydroxybenzyl)-3-isobutyl-4,7-dioxo-8-((S)-1-oxo-1-(phenethylamino)-3-phenylpropan-2-yl)hexahydropyrazino[2,1-c][1,2,4]oxadiazine-1(6H)-carboxylate]  76.3%
8. CC(C)C[C@H]1ON(C(=O)OCc2ccccc2)C2CN(C3CCN(C)CC3)C(=O)[C@H](CCCCN(Cc3ccccc3)Cc3ccccc3)N2C1=O (stereo partly drawn) [Compound I-144, benzyl (3R,6S)-6-(4-(dibenzylamino)butyl)-3-isobutyl-8-(1-methylpiperidin-4-yl)-4,7-dioxohexahydropyrazino [2,1-c][1,2,4]oxadiazine-1(6H)-carboxylate]  78.1%
9. CC(C)CCOC(=O)N1O[C@H](C)C(=O)N2C1CN([C@@H](Cc1ccccc1)C(=O)NCCC(N)=O)C(=O)[C@@H]2Cc1ccccc1 (stereo partly drawn) [Compound I-84, isopentyl (3R,6S)-8-((S)-1-((3-amino-3-oxopropyl)amino)-1-oxo-3-phenylpropan-2-yl)-6-benzyl-3-methyl-4,7-dioxohexahydro-pyrazino[2,1-c] [1,2,4]oxadiazine-1(6H)-carboxylate]  78.4%
10. COC(=O)N1O[C@H](CC2CCCCC2)C(=O)N2C1CN(CCc1cccc3ccccc13)C(=O)[C@@H]2CCCCN (stereo partly drawn) [Compound I-42, (3R,6S)-methyl 6-(4-aminobutyl)-3-(cyclohexylmethyl)-8-(2-(naphthalen-1-yl)ethyl)-4,7-dioxohexahydropyrazino[2,1-c][1,2,4]oxadiazine-1(6H)-carboxylate]  95%
11. CC(C)C[C@H]1C(=O)N(C2CCN(C)CC2)CC2N(C(=O)OCc3ccccc3)O[C@H](CC3CCCCC3)C(=O)N21 (stereo partly drawn) [Compound I-138, benzyl (3R,6S)-3-(cyclohexylmethyl)-6-isobutyl-8-(1-methylpiperidin-4-yl)-4,7-dioxohexahydropyrazino[2,1-c][1,2,4]oxadiazine-1(6H)-carboxylate]  98.2%
12. CC(C)C[C@H]1ON(CCCc2ccccc2)C2CN(C3CCN(C)CC3)C(=O)[C@H](CC3CCCCC3)N2C1=O (stereo partly drawn) [Compound I-143, (3R,6S)-6-(cyclohexylmethyl)-3-isobutyl-8-(1-methylpiperidin-4-yl)-1-(3-phenylpropyl) tetrahydropyrazino [2,1-c][1,2,4]oxadiazine-4,7(3H,6H)-dione]  105%
13. CC(C)C[C@H]1ON(C(=O)OCC2CCCCC2)C2CN(C3CCNCC3)C(=O)[C@H](CC(C)C)N2C1=O (stereo partly drawn) [Compound I-135, cyclohexylmethyl (3R,6S)-3,6-diisobutyl-4,7-dioxo-8-(piperidin-4-yl)hexahydropyrazino[2,1-c][1,2,4]oxadiazine-1(6H)-carboxylate]  110%
14. CN1CCC(N2CC3N(C(=O)OCc4ccccc4)O[C@H](CC4CCCCC4)C(=O)N3[C@@H](CC3CCCCC3)C2=O)CC1 (stereo partly drawn) [Compound I-139, benzyl (3R,6S)-3,6-bis (cyclohexylmethyl)-8-(1-methylpiperidin-4-yl)-4,7-dioxohexahydropyrazino [2,1-c][1,2,4]oxadiazine-1(6H)-carboxylate]  116%
